Species on record: Rattus norvegicus
Test: Open TG-GATES - Regimen: Single
Assay type: toxicity, organism-based, Sprague-Dawley
Parameters: regimen Single, gender Male, age 6 weeks
Conditions: in vivo, po, 0 mg/kg, route gavage, dose level Control; for APTT / Bas / Eos / Fbg / Hb / Ht / Lym / MCH / MCHC / MCV / Mono / Neu / PT / RBC / Ret / WBC / Plat: tissue Blood; for KIDNEY_L / KIDNEY_R / KIDNEY_TOTAL: tissue Kidney; for LIVER: tissue Liver; for ALP / ALT / AST / BUN / CRE / Ca / DBIL / GLC / IP / K / LDH / Na / PL / RALB / TBIL / TC / TG / TP / gamma-GTP: tissue Plasma

SMILES: CSc1ccc2c(c1)N(CCC1CCCCN1C)c1ccccc1S2 (configuration not stated) [THIORIDAZINE]
- TERMINAL_BW (3 h): 216.6 g
- APTT (3 h): 16 s
- Bas (3 h): 0%
- Eos (3 h): 0.6%
- Fbg (3 h): 206.6 mg/dL
- Hb (3 h): 12.9 g/dL
- Ht (3 h): 38.9%
- Lym (3 h): 82.2%
- MCH (3 h): 21.8 pg
- MCHC (3 h): 33.2%
- MCV (3 h): 65.7 fL
- Mono (3 h): 7.4%
- Neu (3 h): 10%
- PT (3 h): 12.1 s
- RBC (3 h): 592 x10_4/ul
- Ret (3 h): 8.6%
- WBC (3 h): 109.6 x10_2/uL
- KIDNEY_L (3 h): 1 g
- KIDNEY_R (3 h): 1 g
- KIDNEY_TOTAL (3 h): 2 g
- LIVER (3 h): 10.6 g
- ALP (3 h): 789.2 IU/L
- ALT (3 h): 37.2 IU/L
- AST (3 h): 71 IU/L
- BUN (3 h): 12.4 mg/dL
- CRE (3 h): 0.5 mg/dL
- Ca (3 h): 11.4 mg/dL
- DBIL (3 h): 0.006 mg/dL
- GLC (3 h): 197.6 mg/dL
- IP (3 h): 10.1 mg/dL
- K (3 h): 5 meq/L
- LDH (3 h): 94.4 IU/L
- Na (3 h): 137.4 meq/L
- PL (3 h): 136.2 mg/dL
- RALB (3 h): 3.8 g/dL
- TBIL (3 h): 0.3 mg/dL
- TC (3 h): 72.2 mg/dL
- TG (3 h): 93.4 mg/dL
- TP (3 h): 5.5 g/dL
- gamma-GTP (3 h): 0.8 IU/L
- TERMINAL_BW (6 h): 212.3 g
- APTT (6 h): 16.3 s
- Bas (6 h): 0%
- Eos (6 h): 1%
- Fbg (6 h): 216.8 mg/dL
- Hb (6 h): 13.7 g/dL
- Ht (6 h): 40.9%
- Lym (6 h): 74%
- MCH (6 h): 21.5 pg
- MCHC (6 h): 33.3%
- MCV (6 h): 64.4 fL
- Mono (6 h): 8.2%
- Neu (6 h): 17.2%
- PT (6 h): 12.1 s
- Plat (6 h): 98.4 x10_4/uL
- RBC (6 h): 635.6 x10_4/ul
- Ret (6 h): 7.7%
- WBC (6 h): 117.4 x10_2/uL
- KIDNEY_L (6 h): 0.9 g
- KIDNEY_R (6 h): 1 g
- KIDNEY_TOTAL (6 h): 1.9 g
- LIVER (6 h): 9.5 g
- ALP (6 h): 834 IU/L
- ALT (6 h): 28 IU/L
- AST (6 h): 60.4 IU/L
- BUN (6 h): 12.4 mg/dL
- CRE (6 h): 0.5 mg/dL
- Ca (6 h): 10.9 mg/dL
- DBIL (6 h): 0.016 mg/dL
- GLC (6 h): 189 mg/dL
- IP (6 h): 10.1 mg/dL
- K (6 h): 5 meq/L
- LDH (6 h): 100.4 IU/L
- Na (6 h): 137.4 meq/L
- PL (6 h): 147 mg/dL
- RALB (6 h): 3.8 g/dL
- TBIL (6 h): 0.4 mg/dL
- TC (6 h): 80.2 mg/dL
- TG (6 h): 84.4 mg/dL
- TP (6 h): 5.5 g/dL
- gamma-GTP (6 h): 2 IU/L
- TERMINAL_BW (9 h): 210.2 g
- APTT (9 h): 16.6 s
- Bas (9 h): 0%
- Eos (9 h): 1.2%
- Fbg (9 h): 221.4 mg/dL
- Hb (9 h): 13.4 g/dL
- Ht (9 h): 40.6%
- Lym (9 h): 73.2%
- MCH (9 h): 21.6 pg
- MCHC (9 h): 33.1%
- MCV (9 h): 65.4 fL
- Mono (9 h): 8.4%
- Neu (9 h): 17.2%
- PT (9 h): 12.2 s
- Plat (9 h): 111.7 x10_4/uL
- RBC (9 h): 620.6 x10_4/ul
- Ret (9 h): 7.6%
- WBC (9 h): 117.1 x10_2/uL
- KIDNEY_L (9 h): 0.9 g
- KIDNEY_R (9 h): 1 g
- KIDNEY_TOTAL (9 h): 1.9 g
- LIVER (9 h): 8.7 g
- ALP (9 h): 724 IU/L
- ALT (9 h): 30.6 IU/L
- AST (9 h): 67.4 IU/L
- BUN (9 h): 12.2 mg/dL
- CRE (9 h): 0.5 mg/dL
- Ca (9 h): 11.1 mg/dL
- DBIL (9 h): 0.034 mg/dL
- GLC (9 h): 197.6 mg/dL
- IP (9 h): 10.7 mg/dL
- K (9 h): 4.9 meq/L
- LDH (9 h): 63 IU/L
- Na (9 h): 139.6 meq/L
- PL (9 h): 147.4 mg/dL
- RALB (9 h): 4 g/dL
- TBIL (9 h): 0.3 mg/dL
- TC (9 h): 87.6 mg/dL
- TG (9 h): 35.8 mg/dL
- TP (9 h): 5.6 g/dL
- gamma-GTP (9 h): 1.2 IU/L
- TERMINAL_BW (24 h): 232.2 g
- APTT (24 h): 15.8 s
- Bas (24 h): 0%
- Eos (24 h): 0.8%
- Fbg (24 h): 225 mg/dL
- Hb (24 h): 13.2 g/dL
- Ht (24 h): 38.9%
- Lym (24 h): 73%
- MCH (24 h): 22 pg
- MCHC (24 h): 33.9%
- MCV (24 h): 64.9 fL
- Mono (24 h): 9.4%
- Neu (24 h): 16.8%
- PT (24 h): 12.2 s
- Plat (24 h): 107.1 x10_4/uL
- RBC (24 h): 600.2 x10_4/ul
- Ret (24 h): 8.3%
- WBC (24 h): 127.4 x10_2/uL
- KIDNEY_L (24 h): 1 g
- KIDNEY_R (24 h): 1 g
- KIDNEY_TOTAL (24 h): 2 g
- LIVER (24 h): 11.4 g
- ALP (24 h): 895 IU/L
- ALT (24 h): 36 IU/L
- AST (24 h): 65.2 IU/L
- BUN (24 h): 18.4 mg/dL
- CRE (24 h): 0.5 mg/dL
- Ca (24 h): 11 mg/dL
- DBIL (24 h): 0.016 mg/dL
- GLC (24 h): 193.4 mg/dL
- IP (24 h): 8.1 mg/dL
- K (24 h): 5.1 meq/L
- LDH (24 h): 73 IU/L
- Na (24 h): 138.4 meq/L
- PL (24 h): 150.8 mg/dL
- RALB (24 h): 3.9 g/dL
- TBIL (24 h): 0.3 mg/dL
- TC (24 h): 81.6 mg/dL
- TG (24 h): 87.8 mg/dL
- TP (24 h): 5.7 g/dL

From ChEMBL document CHEMBL3885861, “Open TG-GATES”
